Measured values published in patent publication US20220160651A1, “RAPIDLY IMPROVING ENDOTHELIAL FUNCTION, REDUCING ARTERIAL STIFFNESS AND REVERSING CALCIFICATION OF BLOOD VESSELS BY ADMINISTERING VITAMIN K” (KAYDENCE PHARMA AS, priority 2019, published 2022).

How the values were obtained:
[1] = mouse, in vivo, 5 mg/kg/day
[2] = tested on: ApoE/LDLR−/− mice; assay: Histological assessment of area and composition of atherosclerotic plaque in BCA, older mice (Example 3); format: in vivo; details: eight weeks
Description: For the determination of atherosclerotic plaque area and composition isolated brachiocephalic artery (BCA) was dissected, fixed in 4% buffered formalin, and embedded in paraffin. 5 μm-thick serial sections of BCA were collected from the proximal to distal part of the artery. Staining with Unna's orcein combined with Martius, Scarlet and Blue trichrome (OMSB) was applied on every tenth section (50 μm interval between each section) for quantitative analysis of atherosclerotic plaques. The areas of particular components of atherosclerotic plaque as well as artery lumen and wall were determined after Columbus-based software processing (FIG. 9) using specially-designed algorithm as described in Gajda M, Jasztal A, Banasik T, Jasek-Gajda E, Chlopicki S. Combined orcein and martius scarlet blue (OMSB) staining for qualitative and quantitative analyses of atherosclerotic plaques in brachiocephalic arteries in apoE/LDLR−/− mice. Histochem Cell Biot 2017. doi:10.1007/s00418-017-1538-8. The parameters analyzed include vessel wall area (VWA), internal vessel area (IVA=plaque area+lumen area), plaque area (expressed as percent of internal wall area: plaque/IWA), and lumen area (expressed as percent of internal wall area: lumen/IWA).

[3] = tested on: ApoE/LDLR−/− mice; assay: MRI assessment of endothelium-dependent vasodilatation (FMD in femoral artery, Ach response in abdominal aorta), young mice (Example 3); format: in vivo
Experimental: Mice were randomly assigned to one of four experimental groups: control (untreated group) and three groups treated with vitamin K2 at a dose of 0.05, 0.5, and 5 mg/kg b.w./day, respectively. End-point measurements were performed at the age of 10-16 weeks.
Magnetic resonance imaging (MRI) experiments were performed using a 9.4T scanner (BioSpec 94/20 USR, Bruker, Germany) located in the Department of Magnetic Resonance Imaging, Institute of Nuclear Physics, Polish Academy of Sciences in Krakow. During the experiment, mice were anaesthetized using isoflurane (Aerrane, Baxter Sp. z o. o., Poland, 1.7 vol %) in an oxygen and air (1:2) mixture and imaged in the supine position. Activity of the heart, respiration, and body temperature (maintained at 37° C. using circulating warm water) were monitored using a Monitoring and Gating System (SA Inc., Stony Brook, N.Y., USA).
Endothelial function was assessed based on vascular responses to acetylcholine (Ach) administration in brachiocephalic artery (BCA), left common carotid artery (LCA) (FIGS. 6 A and B) and abdominal aorta (AA) (FIG. 6C) as well as to responses to increase in flow (flow-mediated dilatation, FMD) in femoral artery (FA) (FIG. 6D) as described in Bar A, Skorka T, Jasinski K, Sternak M, Bartel Ż, Tyrankiewicz U, et al. Retrospectively-gated MRI for in vivo assessment of endothelium-dependent vasodilatation and endothelial permeability in murine models of endothelial dysfunction. NMR Biomed 2016; 29(8):1088.; Sternak M, Bar A, Adamski M G, Mohaissen T, Marczyk B, Kieronska A, et al. The Deletion of Endothelial Sodium Channel α (αENaC) Impairs Endothelium-Dependent Vasodilation and Endothelial Barrier Integrity in Endotoxemia in Vivo. Front Pharmacol 2018; 9:178. doi:10.3389/fphar.2018.00178.; and Bar A, Olkowicz M, Tyrankiewicz U, Kus E, Jasinski K, Smolenski R T, et al. Functional and Biochemical Endothelial Profiling In Vivo in a Murine Model of Endothelial Dysfunction; Comparison of Effects of 1-Methylnicotinamide and Angiotensin-converting Enzyme Inhibitor. Front Pharmacol 2017; 8:183. doi:10.3389/fphar.2017.00183.).
Vasomotor response was examined by comparing two time-resolved 3D images of the vessels prior to and 25 minutes after intraperitoneal Ach administration (Sigma-Aldrich, Poznan Poland: 50 μl, 16.6 mg/kg), as well as prior to and 5 minutes after vessel occlusion. Images were acquired using the cine IntraGate™ FLASH 3D sequence, reconstructed with the IntraGate 1.2.b.2 macro (Bruker). End-diastolic volumes of vessels were analyzed using ImageJ software 1.46r (NIH Bethesda, Md., USA) and scripts written in Matlab (MathWorks, Natick, Mass., USA). Imaging parameters included the following: repetition time (TR)—6.4 ms, echo time (TE)—1.4 ms, field of view (FOV) −30×30×5 mm3, matrix size—256×256×30, flip angle (FA)—30°, and number of accumulations (NA)—15, reconstructed to 7 cardiac frames. Total scan time was 10 minutes.

[4] = tested on: ApoE/LDLR−/− mice; assay: Nitrite and nitrate concentration in plasma, HPLC-based ENO-20 (Example 2); format: in vivo; details: two months; for increase in NO2− concentration in plasma: vs untreated
Experimental: Nitrite (NO2^−) and nitrate (NO3^−) concentration in plasma—HPLC-based ENO-20
Blood samples were collected from heart into test tubes containing additional anticoagulant and centrifuged at 1000 g for 10 min at 4° C. The samples were used for HPLC measurement of nitrate (NO3^−) and nitrite (NO2^−) concentrations in plasma by an ENO-20 NOx Analyzer.

[5] = 0.05 mg/kg b.w./day, eight weeks
[6] = 0.05 mg/kg b.w./day, four weeks, 15-week-old mice

CC(C)=CCC/C(C)=C/CC/C(C)=C/CC/C(C)=C/CC/C(C)=C/CC/C(C)=C/CC/C(C)=C/CC1=C(C)C(=O)c2ccccc2C1=O [MK-7, menaquinone-7]
concentration of MK4 2,3-epoxide in plasma [1]: maintained at similar level in all groups
plasma concentration of MK-4 [1]: dose-dependent increase
vitamin K1 and K1 2,3-epoxide plasma concentration [1]: tent to decrease with increasing dose
plaque size compared with non-treated mice ([2]; low (0.03 mg/kg b.w./day) or high dose (10 mg/kg b.w./day)): not different
decrease in vessel wall area (VWA) of BCA ([2]; low and high dose, 24-week-old mice): about 5%
plaque and lumen area expressed as percent of IWA ([2]; low or high dose): did not change
internal wall area (IWA) ([2]; lower dose): decreased only in the middle part of the vessel
Ach response in AA, volume changes [3, 5]: −0.65%
FMD in FA, volume changes [3, 5]: 28.34%
Ach response in AA, volume changes [3, 6]: −1.59%
FMD in FA, volume changes [3, 6]: 33.26%
Ach response in AA, volume changes ([3]; 0.5 mg/kg b.w./day, two weeks): 1.52%
FMD in FA, volume changes ([3]; 0.5 mg/kg b.w./day, two weeks): 28.57%
Ach response in AA, volume changes ([3]; 5 mg/kg b.w./day, two weeks): 0.16%
FMD in FA, volume changes ([3]; 5 mg/kg b.w./day, two weeks): 26.55%
concentration of NO3− in plasma ([4]; 0.03 and 10 mg/kg b.w./day): did not change significantly
increase in NO2− concentration in plasma ([4]; high dose 10 mg/kg b.w./day): ~42%
increase in NO2− concentration in plasma ([4]; low dose 0.03 mg/kg b.w./day): about 58%
